Data from US9150575B2, “Piperidinylpyrazolopyridine derivative” (Daiichi Sankyo Company, Limited, priority 2012, dated 2015).
Structures can show the parent of a compound that is named as a salt.

molecular target: T1, LCAT (Homo sapiens, UniProt P04180); experiment: LCAT Activity Measurement (In Vitro); type: biochemical; conditions: EC50 of LCAT activation; HDL3 fraction from plasma of a healthy person as enzyme source and acceptor; [14C]cholesterol; 37° C., approximately 16 hours
T1 construct: The obtained fraction was dialyzed against phosphate-buffered saline (pH 7.4) and used as an enzyme source and an acceptor for LCAT; from tissue; host or cells: HDL3 fraction (1.125<specific gravity<1.210 g/mL) of plasma from a healthy person
T1 sequence (P04180 25-440): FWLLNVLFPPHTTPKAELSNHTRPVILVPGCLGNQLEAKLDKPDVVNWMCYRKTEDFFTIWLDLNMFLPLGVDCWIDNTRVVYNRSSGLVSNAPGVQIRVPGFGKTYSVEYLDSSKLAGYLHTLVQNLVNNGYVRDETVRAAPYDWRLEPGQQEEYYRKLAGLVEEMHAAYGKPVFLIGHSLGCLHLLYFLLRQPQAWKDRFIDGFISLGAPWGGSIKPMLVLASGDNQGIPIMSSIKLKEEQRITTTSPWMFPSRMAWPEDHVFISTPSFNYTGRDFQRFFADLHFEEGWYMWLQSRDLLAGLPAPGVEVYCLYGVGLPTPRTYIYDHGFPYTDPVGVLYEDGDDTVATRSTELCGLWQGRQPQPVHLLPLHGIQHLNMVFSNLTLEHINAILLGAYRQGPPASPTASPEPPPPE
Experimental: A fraction composed of HDL3 (1.125<specific gravity<1.210 g/mL) was obtained from the plasma of a healthy person by density gradient centrifugation. The obtained fraction was dialyzed against phosphate-buffered saline (pH 7.4) and used as an enzyme source and an acceptor for LCAT. Each test drug was prepared by dissolution in dimethyl sulfoxide. [14C]Cholesterol containing DTNB (Ellman's reagent, final concentration: 0.5 mM), mercaptoethanol (final concentration: 12.5 mM), and 0.6% bovine serum albumin was added to phosphate-buffered saline (pH 7.4) containing 1 mg/mL HDL3, and the test drug was further added thereto at varying concentrations to adjust the whole amount to 80 μL. This mixture was incubated at 37° C. for approximately 16 hours. Then, a mixed solution of hexane and isopropanol (mixing ratio=3:2) was added thereto to stop the reaction. After stirring, the hexane layer was collected, and this layer was evaporated to dryness. A chloroform solution (concentration: 10 mg/mL) was added thereto, and the mixture was spotted onto a thin-layer silica gel plate and developed using a mixed solution of hexane, diethyl ether, and ethyl acetate (mixing ratio=85:15:2). The radioactivity of a portion corresponding to cholesterol oleate was measured using an imaging analyzer BAS-2500 (manufactured by Fujifilm Corp.). A sample non-supplemented with the test drug was similarly treated and assayed. The EC50 value of LCAT activation was calculated according to the expression given below relative to LCAT activity in the sample non-supplemented with the test drug.
wherein X represents the logarithm of the concentration of the test drug;
Y represents the responsiveness (LCAT activity) of the test drug;
Top represents the maximum value (maximum plateau);
Bottom represents the minimum value (minimum plateau); and
EC50 represents the 50% effective concentration.

SMILES	EC50
O=C1CC(O)(C(F)(F)F)c2c(C3CCN(c4cc(I)c(C(F)(F)F)cn4)CC3)n[nH]c2N1 (single isomer, unassigned) [Compound 103-2, 4-hydroxy-3-{1-[4-iodo-5-(trifluoromethyl)pyridin-2-yl]piperidin-4-yl}-4-(trifluoromethyl)-1,4,5,7-tetrahydro-6H-pyrazolo[3,4-b]pyridin-6-one]	0.53 µM
O=C1CC(O)(C(F)(F)F)c2c(C3CCN(c4ccc(C(F)(F)F)cn4)CC3)n[nH]c2N1 (single isomer, unassigned; (+)) [Compound 49-2, (+)-4-hydroxy-4-(trifluoromethyl)-3-{1-[5-(trifluoromethyl)pyridin-2-yl]piperidin-4-yl}-1,4,5,7-tetrahydro-6H-pyrazolo[3,4-b]pyridin-6-one]	3.77 µM
O=C1CC(O)(C(F)(F)F)c2c(C3CCN(c4ccc(OC(F)F)cc4)CC3)n[nH]c2N1 (single isomer, unassigned; (+)) [Compound 56-2, (+)-3-{1-[4-(difluoromethoxy)phenyl]piperidin-4-yl}-4-hydroxy-4-(trifluoromethyl)-1,4,5,7-tetrahydro-6H-pyrazolo[3,4-b]pyridin-6-one]	0.98 µM
O=C1CC(O)(C(F)(F)F)c2c(C3CCN(c4nc(C(F)(F)F)cs4)CC3)n[nH]c2N1 (stereo not drawn) [Compound 48-a, 4-Hydroxy-4-(trifluoromethyl)-3-{1-[4-(trifluoromethyl)-1,3-thiazol-2-yl]piperidin-4-yl}-1,4,5,7-tetrahydro-6H-pyrazolo[3,4-b]pyridin-6-one]	0.08 µM
O=C1CC(O)(C(F)(F)F)c2c(C3CCN(c4nc(C(F)(F)F)c(-c5nc(C(F)(F)F)cs5)s4)CC3)n[nH]c2N1 (stereo not drawn) [Compound 48-b, 3-{1-[4,4′-bis(trifluoromethyl)-2,5′-bi-1,3-thiazol-2′-yl]piperidin-4-yl}-4-hydroxy-4-(trifluoromethyl)-1,4,5,7-tetrahydro-6H-pyrazolo[3,4-b]pyridin-6-one]	0.046 µM
O=C1CC(O)(C(F)(F)F)c2c(C3CCN(c4nc(Cl)ccc4C(F)(F)F)CC3)n[nH]c2N1 (stereo not drawn) [Compound 98-b, 3-{1-[6-chloro-3-(trifluoromethyl)pyridin-2-yl]piperidin-4-yl}-4-hydroxy-4-(trifluoromethyl)-1,4,5,7-tetrahydro-6H-pyrazolo[3,4-b]pyridin-6-one]	0.51 µM
O=C1CC(O)(C(F)(F)F)c2c(C3CCN(c4ccccc4)CC3)n[nH]c2N1 (stereo not drawn) [Example 1, 4-Hydroxy-3-(1-phenylpiperidin-4-yl)-4-(trifluoromethyl)-1,4,5,7-tetrahydro-6H-pyrazolo[3,4-b]pyridin-6-one]	1.51 µM
Cc1cccc(N2CCC(c3n[nH]c4c3C(O)(C(F)(F)F)CC(=O)N4)CC2)n1 (stereo not drawn) [Example 3, 4-Hydroxy-3-[1-(6-methylpyridin-2-yl)piperidin-4-yl]-4-(trifluoromethyl)-1,4,5,7-tetrahydro-6H-pyrazolo[3,4-b]pyridin-6-one]	0.63 µM
Cc1ccc(N2CCC(c3n[nH]c4c3C(O)(C(F)(F)F)CC(=O)N4)CC2)nc1 (stereo not drawn) [Example 4, 4-Hydroxy-3-[1-(5-methylpyridin-2-yl)piperidin-4-yl]-4-(trifluoromethyl)-1,4,5,7-tetrahydro-6H-pyrazolo[3,4-b]pyridin-6-one]	0.25 µM
Cc1ccnc(N2CCC(c3n[nH]c4c3C(O)(C(F)(F)F)CC(=O)N4)CC2)c1 (stereo not drawn) [Example 5, 4-Hydroxy-3-[1-(4-methylpyridin-2-yl)piperidin-4-yl]-4-(trifluoromethyl)-1,4,5,7-tetrahydro-6H-pyrazolo[3,4-b]pyridin-6-one]	0.29 µM
O=C1CC(O)(C(F)(F)F)c2c(C3CCN(c4ncccc4Cl)CC3)n[nH]c2N1 (stereo not drawn) [Example 11, 3-[1-(3-Chloropyridin-2-yl)piperidin-4-yl]-4-hydroxy-4-(trifluoromethyl)-1,4,5,7-tetrahydro-6H-pyrazolo[3,4-b]pyridin-6-one]	3.09 µM
O=C1CC(O)(C(F)(F)F)c2c(C3CCN(c4cc(C(F)(F)F)ccn4)CC3)n[nH]c2N1 (stereo not drawn) [Example 13, 4-Hydroxy-4-(trifluoromethyl)-3-{1-[4-(trifluoromethyl)pyridin-2-yl]piperidin-4-yl}-1,4,5,7-tetrahydro-6H-pyrazolo[3,4-b]pyridin-6-one]	0.056 µM
O=C1CC(O)(C(F)(F)F)c2c(C3CCN(c4ccc(Cl)cn4)CC3)n[nH]c2N1 (stereo not drawn) [Example 14, 3-[1-(5-Chloropyridin-2-yl)piperidin-4-yl]-4-hydroxy-4-(trifluoromethyl)-1,4,5,7-tetrahydro-6H-pyrazolo[3,4-b]pyridin-6-one]	0.086 µM
O=C1CC(O)(C(F)(F)F)c2c(C3CCN(c4ccc(F)cn4)CC3)n[nH]c2N1 (stereo not drawn) [Example 15, 3-[1-(5-Fluoropyridin-2-yl)piperidin-4-yl]-4-hydroxy-4-(trifluoromethyl)-1,4,5,7-tetrahydro-6H-pyrazolo[3,4-b]pyridin-6-one]	0.25 µM
O=C1CC(O)(C(F)(F)F)c2c(C3CCN(c4ccc5ccccc5n4)CC3)n[nH]c2N1 (stereo not drawn) [Example 16, 4-Hydroxy-3-[1-(quinolin-2-yl)piperidin-4-yl]-4-(trifluoromethyl)-1,4,5,7-tetrahydro-6H-pyrazolo[3,4-b]pyridin-6-one]	0.096 µM
CC(C)Oc1ccc(N2CCC(c3n[nH]c4c3C(O)(C(F)(F)F)CC(=O)N4)CC2)nn1 (stereo not drawn) [Example 18, 4-Hydroxy-3-{1-[6-(propan-2-yloxy)pyridazin-3-yl]piperidin-4-yl}-4-(trifluoromethyl)-1,4,5,7-tetrahydro-6H-pyrazolo[3,4-b]pyridin-6-one hydrochloride]	0.101 µM

More lines, in order of falling EC50, values ahead:

EC50	SMILES
1.26 µM	Cc1cccnc1N1CCC(c2n[nH]c3c2C(O)(C(F)(F)F)CC(=O)N3)CC1 (stereo not drawn) [Example 6, 4-Hydroxy-3-[1-(3-methylpyridin-2-yl)piperidin-4-yl]-4-(trifluoromethyl)-1,4,5,7-tetrahydro-6H-pyrazolo[3,4-b]pyridin-6-one]
1.15 µM	O=C1CC(O)(C(F)(F)F)c2c(C3CCN(c4ncccc4C(F)(F)F)CC3)n[nH]c2N1 (stereo not drawn) [Example 9, 4-Hydroxy-4-(trifluoromethyl)-3-{1-[3-(trifluoromethyl)pyridin-2-yl]piperidin-4-yl}-1,4,5,7-tetrahydro-6H-pyrazolo[3,4-b]pyridin-6-one]
0.52 µM	O=C1CC(O)(C(F)(F)F)c2c(C3CCN(c4ccccn4)CC3)n[nH]c2N1 (stereo not drawn) [Example 2, 4-Hydroxy-3-[1-(pyridin-2-yl)piperidin-4-yl]-4-(trifluoromethyl)-1,4,5,7-tetrahydro-6H-pyrazolo[3,4-b]pyridin-6-one]
0.064 µM	CC(C)Oc1ccc(N2CCC(c3n[nH]c4c3C(O)(C(F)(F)F)CC(=O)N4)CC2)nn1 (stereo not drawn) [Example 17, 4-Hydroxy-3-{1-[6-(propan-2-yloxy)pyridazin-3-yl]piperidin-4-yl}-4-(trifluoromethyl)-1,4,5,7-tetrahydro-6H-pyrazolo[3,4-b]pyridin-6-one]
0.054 µM	COc1cccc(N2CCC(c3n[nH]c4c3C(O)(C(F)(F)F)CC(=O)N4)CC2)n1 (stereo not drawn) [Example 12, 4-Hydroxy-3-[1-(6-methoxypyridin-2-yl)piperidin-4-yl]-4-(trifluoromethyl)-1,4,5,7-tetrahydro-6H-pyrazolo[3,4-b]pyridin-6-one]
0.027 µM	O=C1CC(O)(C(F)(F)F)c2c(C3CCN(c4cc(I)c(C(F)(F)F)cn4)CC3)n[nH]c2N1 (single isomer, unassigned) [Compound 103-1, 4-hydroxy-3-{1-[4-iodo-5-(trifluoromethyl)pyridin-2-yl]piperidin-4-yl}-4-(trifluoromethyl)-1,4,5,7-tetrahydro-6H-pyrazolo[3,4-b]pyridin-6-one]
0.023 µM	O=C1CC(O)(C(F)(F)F)c2c(C3CCN(c4ccc(C(F)(F)F)c(Cl)n4)CC3)n[nH]c2N1 (stereo not drawn) [Compound 98-a, 3-{1-[6-Chloro-5-(trifluoromethyl)pyridin-2-yl]piperidin-4-yl}-4-hydroxy-4-(trifluoromethyl)-1,4,5,7-tetrahydro-6H-pyrazolo[3,4-b]pyridin-6-one]
0.018 µM	O=C1CC(O)(C(F)(F)F)c2c(C3CCN(c4ccc(C(F)(F)F)cn4)CC3)n[nH]c2N1 (single isomer, unassigned; (-)) [Compound 49-1, (−)-4-Hydroxy-4-(trifluoromethyl)-3-{1-[5-(trifluoromethyl)pyridin-2-yl]piperidin-4-yl}-1,4,5,7-tetrahydro-6H-pyrazolo[3,4-b]pyridin-6-one]
